Literature values as cited in patent US20180318246A1 (SUN PHARMACEUTICAL INDUSTRIES LIMITED, priority 2015, published 2018).
Where a name gives a salt, the structure may show the parent alone.

In the case of `COC(=O)/C=C/C(=O)OC` [dimethyl fumarate], the “Permeability coefficient compared with monomethyl fumarate” value is given as “significantly higher”.
